According to US20030007949A1, “Adhesive treatment for tinea corporis” (CLOSURE MEDICAL CORPORATION, priority 2001, published 2003):

Test: Observation of haloprogin / 2-octyl cyanoacrylate monomer composition after preparation
Format: physicochemical
Conditions: 30 mg haloprogin in 2 mL 2-octyl cyanoacrylate monomer, observed at about one minute and at least twenty-four hours after preparation
Description: A 2-octyl cyanoacrylate monomer composition is prepared by adding 30 mg of haloprogin, an anti-fungal agent, to 2 mL of 2-octyl cyanoacrylate monomer. The mixture is sealed in a glass vial and stirred. The characteristics of the composition are observed at about one minute after preparation and later at least twenty-four hours after preparation.

Q: Which “premature polymerization caused in the monomer” value does the source give for `Clc1cc(Cl)c(OCC#CI)cc1Cl` [haloprogin] here?
A: does not cause premature polymerization

Q: What about the “solubility of haloprogin in the monomer” value (sealed glass vial, stirred) of the same molecule?
A: soluble
